Experimental data published in PubChem BioAssay (NCI).
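In this assay, cells in 96-well plates receive the compound at five concentrations for 48 hours. Endpoints are linearly interpolated between the surrounding concentrations. The concentration for 50% growth inhibition is given as GI50. At the TGI there is no net growth.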

Experiments:
Test in all cases: inhibition of tumour cell growth, NCI panel, 48 h
OVCAR-8 ovarian = tested on: OVCAR-8 ovarian
OVCAR-4 ovarian = tested on: OVCAR-4 ovarian
HL-60(TB) leukemia = tested on: HL-60(TB) leukemia
UO-31 renal = tested on: UO-31 renal
U251 CNS = tested on: U251 CNS
HCT-116 colon = tested on: HCT-116 colon
EKVX NSCLC = tested on: EKVX NSCLC
NCI-H460 lung = tested on: NCI-H460 lung
SN12C renal = tested on: SN12C renal
NCI-H23 lung = tested on: NCI-H23 lung
TK-10 renal = tested on: TK-10 renal
SNB-19 CNS = tested on: SNB-19 CNS
SF-295 CNS = tested on: SF-295 CNS
SNB-75 CNS = tested on: SNB-75 CNS
IGROV1 ovarian = tested on: IGROV1 ovarian
HCC-2998 colon = tested on: HCC-2998 colon
HOP-62 NSCLC = tested on: HOP-62 NSCLC
MOLT-4 leukemia = tested on: MOLT-4 leukemia
786-0 renal = tested on: 786-0 renal
MDA-MB-231 breast = tested on: MDA-MB-231 breast
LOX IMVI melanoma = tested on: LOX IMVI melanoma
MDA-MB-435 = tested on: MDA-MB-435
OVCAR-5 ovarian = tested on: OVCAR-5 ovarian
SK-OV-3 ovarian = tested on: SK-OV-3 ovarian
HOP-92 NSCLC = tested on: HOP-92 NSCLC
OVCAR-3 ovarian = tested on: OVCAR-3 ovarian
MALME-3M melanoma = tested on: MALME-3M melanoma
DU-145 prostate = tested on: DU-145 prostate

## C=C1C(=O)O[C@H]2[C@H]1CC/C(CNC(=O)c1cccc3ccccc13)=C\CC[C@@]1(C)O[C@@H]21
OVCAR-8 ovarian
  GI50: 3.29 µM
  TGI: 12 µM
OVCAR-4 ovarian
  GI50: 2.34 µM
  TGI: 8 µM
HL-60(TB) leukemia
  GI50: 1.34 µM
  TGI: 4.38 µM
UO-31 renal
  GI50: 1.44 µM
  TGI: 2.94 µM
U251 CNS
  GI50: 5.2 µM
  TGI: 18.2 µM
HCT-116 colon
  GI50: 1.03 µM
  TGI: 2.32 µM
EKVX NSCLC
  GI50: 2.2 µM
  TGI: 8.79 µM
NCI-H460 lung
  GI50: 7.23 µM
  TGI: 25.2 µM
SN12C renal
  GI50: 1.96 µM
  TGI: 5.91 µM
NCI-H23 lung
  GI50: 3.67 µM
  TGI: 19.1 µM
TK-10 renal
  GI50: 1.98 µM
  TGI: 4.46 µM
SNB-19 CNS
  GI50: 5.96 µM
  TGI: 20 µM
SF-295 CNS
  GI50: 6.15 µM
  TGI: 21.6 µM
SNB-75 CNS
  GI50: 11.9 µM
  TGI: 27.1 µM
IGROV1 ovarian
  GI50: 1.33 µM
  TGI: 3.86 µM
HCC-2998 colon
  GI50: 2.43 µM
  TGI: 5.2 µM
HOP-62 NSCLC
  GI50: 14.1 µM
  TGI: 30.7 µM
MOLT-4 leukemia
  GI50: 1.7 µM
  TGI: 5.62 µM
786-0 renal
  GI50: 1.64 µM
  TGI: 3.41 µM
MDA-MB-231 breast
  GI50: 1.59 µM
  TGI: 4 µM
LOX IMVI melanoma
  GI50: 1.53 µM
  TGI: 3.19 µM
MDA-MB-435
  GI50: 1.99 µM
  TGI: 6.56 µM
OVCAR-5 ovarian
  GI50: 3.6 µM
  TGI: 14 µM
SK-OV-3 ovarian
  GI50: 17.1 µM
  TGI: 33.1 µM
HOP-92 NSCLC
  GI50: 1.83 µM
  TGI: 4.44 µM
OVCAR-3 ovarian
  GI50: 1.31 µM
  TGI: 2.77 µM
MALME-3M melanoma
  GI50: 1.41 µM
  TGI: 3.23 µM
DU-145 prostate
  GI50: 1.02 µM
